In US8569344B2, “N-piperidinyl acetamide derivatives as calcium channel blockers” (Zalicus Pharmaceuticals Ltd., priority 2008, dated 2013):
Like-named read-outs stand apart in the source and are kept apart here.

Experiments:
[1] = molecular target: T1, human α1G T-type channels (Homo sapiens, UniProt O43497); assay: T-type calcium channel block, whole cell patch clamp in HEK cells (α1G); assay type: cell-based; conditions: HEK cells, patch clamp, mainly non-inactivated protocol; values above 10 μM shown as 10 μM, below 0.30 μM shown as 0.30 μM; read-out: T-type Calcium Channel Block α1G IC50
T1 construct: expressed in transfected cells; host or cells: HEK 293

[2] = molecular target: T2, human α1H T-type channels (Homo sapiens, UniProt O95180); assay: T-type calcium channel block, whole cell patch clamp in HEK cells (α1H); assay type: cell-based; conditions: HEK cells, patch clamp, mainly non-inactivated protocol; values above 10 μM shown as 10 μM; read-out: T-type Calcium Channel Block α1H IC50
T2 construct: expressed in transfected cells; host or cells: HEK 293

[3] = system: absence seizures in GAERS rats; assay: GAERS (Genetic Absence Epilepsy Rats from Strasbourg) epilepsy model, EEG spike and wave discharges; assay type: in vivo, rat; conditions: IP 30 mg/kg
Text: The GAERS (Genetic Absence Epilepsy Rats from Strasbourg) is noted for its long and frequently recurring absence seizure episodes. […] Eight female GAERS rats, bred in the Ludwig Institute for Cancer Research, were used for this study. Rats weighed between 180 and 250 g and aged between 18 and 26 weeks at the start of the experiment.
Electrodes were made in our laboratory by soldering together gold-plated sockets (220-S02 Ginder Scientific, VA, Canada), stainless steel teflon coated wire (SDR clinical technology, NSW, Australia) and a small stainless steel screw (1.4×3 mm, Mr. Specks, Australia). Animals were anaethetised with inhalation of Isoflurane in equal parts of medical air and oxygen (5% induction, 2.5-1.5% maintenance) or alternatively by intraperitoneal injection with xylazine (10 mg/kg) and ketamine (75 mg/kg). The animals were fixated in a stereotaxic frame by means of ear bars. A midline incision on the scalp was made, skin and connective tissue was scraped and pushed laterally to expose underlying skull. 6 holes were drilled bilaterally, 2 in the frontal bone and 4 in the parietal bone, approximately 2 mm anterior to bregma, and 4 and 10 mm posterior to bregma. 6 electrodes were implanted in the holes, and gold-plated sockets were clipped into 9-pin ABS plug (GS09PLG-220, Ginder Scientific, Canada). 2 two side-anchoring screws were placed laterally into skull to improve strength of cap fixation, then caps were held in place with dental cement.
Post-operatively, animals were given the analgesic Rimadyl (4 mg/kg), placed in their cages on a heat mat, and observed until recovery. Rats were caged separately throughout the study, weighed and health-checked daily, and were allowed 7 days to recover prior to commencement of the experimental procedures. Rats were allowed free access to rodent chow (brand, WA stock feeders) and water under 12:12 light dark conditions in the Biological Research Facility of the Department of Medicine (RMH).
Prior to first drug treatment, rats were tested for absence-type seizures, which are accompanied by generalised spike and wave discharges (SWD) on an EEG recording. Testing, and all further experiments were performed in a quiet, well lit room with rats in their home cages. Rats were connected via 6-channel wire cables, which were cut and soldered to 6 gold-plated pins inserted into a 9 pin socket. Cables were connected to a computer running Compumedics™ EEG acquisition software (Melbourne, Australia). […] On week 1, day 1 after the acclimation period following surgical implantation of subdural electrodes, 4 animals (#1-4) were habituated with the cable connected for 15 minutes, then had their SWDs recorded for 60 minutes as baseline. Immediately following baseline, rats were given one of the test, reference or control articles according to the treatment schedule, and target period was recorded from 15 after injection for 120 minutes. Animals were monitored throughout the experiment, and were kept quietly wakeful during baseline and target periods
The seizure expression for the 60 minutes pre-injection and 120 minutes post-injection EEG recording (starting 15 minutes post-drug administration) was quantified by marking the start and finish of the burst of SWDs. This was done with the assistance of SWCFinder® software which has been custom designed to quantitate GAERS seizures, and researchers were blinded to the nature of the drug administered, whereby the analysis was performed blinded. Standard criteria for GAERS seizures is an SWD burst of amplitude of more than three times baseline, a frequency of 7 to 12 Hz, and a duration of longer than 0.5 s. From this, the total percent time spent in seizure over the 120 minutes post-injection EEG recording was determined (percentage time in seizure) as the primary outcome variable.

hERG K+ channel = hERG K+ channel (Homo sapiens, UniProt Q12809); assay: hERG K+ Channel Block; assay type: cell-based
hERG K+ channel, sequence (Q12809 whole entry): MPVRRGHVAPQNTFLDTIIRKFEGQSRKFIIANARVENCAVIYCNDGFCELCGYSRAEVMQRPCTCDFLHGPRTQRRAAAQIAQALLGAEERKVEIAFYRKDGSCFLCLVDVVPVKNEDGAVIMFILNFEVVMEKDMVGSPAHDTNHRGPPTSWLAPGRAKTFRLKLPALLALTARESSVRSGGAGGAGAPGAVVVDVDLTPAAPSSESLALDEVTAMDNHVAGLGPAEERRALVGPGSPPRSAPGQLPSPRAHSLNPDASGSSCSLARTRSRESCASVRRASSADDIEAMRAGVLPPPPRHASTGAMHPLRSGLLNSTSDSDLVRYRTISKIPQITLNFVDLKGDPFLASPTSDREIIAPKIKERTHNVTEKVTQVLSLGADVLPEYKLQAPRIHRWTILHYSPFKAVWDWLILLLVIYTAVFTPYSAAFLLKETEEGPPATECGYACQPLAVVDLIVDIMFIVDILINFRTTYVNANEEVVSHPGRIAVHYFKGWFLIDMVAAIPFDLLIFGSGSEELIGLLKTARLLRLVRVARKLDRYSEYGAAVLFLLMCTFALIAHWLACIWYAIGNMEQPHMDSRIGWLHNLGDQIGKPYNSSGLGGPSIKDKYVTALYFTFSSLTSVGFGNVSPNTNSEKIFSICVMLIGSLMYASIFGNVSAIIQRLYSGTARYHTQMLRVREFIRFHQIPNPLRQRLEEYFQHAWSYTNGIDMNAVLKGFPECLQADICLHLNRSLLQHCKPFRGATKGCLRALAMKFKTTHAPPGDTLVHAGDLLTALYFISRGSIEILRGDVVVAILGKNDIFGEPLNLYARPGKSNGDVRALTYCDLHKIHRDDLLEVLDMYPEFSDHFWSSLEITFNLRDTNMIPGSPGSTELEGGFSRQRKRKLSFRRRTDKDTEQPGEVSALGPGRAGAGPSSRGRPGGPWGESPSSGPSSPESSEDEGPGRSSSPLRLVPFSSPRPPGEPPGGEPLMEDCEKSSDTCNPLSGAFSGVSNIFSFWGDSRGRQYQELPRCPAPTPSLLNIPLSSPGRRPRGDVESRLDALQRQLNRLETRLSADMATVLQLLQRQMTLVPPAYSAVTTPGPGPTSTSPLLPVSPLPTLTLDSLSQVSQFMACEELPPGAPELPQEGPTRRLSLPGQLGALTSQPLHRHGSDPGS

T2 sequence (O95180 whole entry): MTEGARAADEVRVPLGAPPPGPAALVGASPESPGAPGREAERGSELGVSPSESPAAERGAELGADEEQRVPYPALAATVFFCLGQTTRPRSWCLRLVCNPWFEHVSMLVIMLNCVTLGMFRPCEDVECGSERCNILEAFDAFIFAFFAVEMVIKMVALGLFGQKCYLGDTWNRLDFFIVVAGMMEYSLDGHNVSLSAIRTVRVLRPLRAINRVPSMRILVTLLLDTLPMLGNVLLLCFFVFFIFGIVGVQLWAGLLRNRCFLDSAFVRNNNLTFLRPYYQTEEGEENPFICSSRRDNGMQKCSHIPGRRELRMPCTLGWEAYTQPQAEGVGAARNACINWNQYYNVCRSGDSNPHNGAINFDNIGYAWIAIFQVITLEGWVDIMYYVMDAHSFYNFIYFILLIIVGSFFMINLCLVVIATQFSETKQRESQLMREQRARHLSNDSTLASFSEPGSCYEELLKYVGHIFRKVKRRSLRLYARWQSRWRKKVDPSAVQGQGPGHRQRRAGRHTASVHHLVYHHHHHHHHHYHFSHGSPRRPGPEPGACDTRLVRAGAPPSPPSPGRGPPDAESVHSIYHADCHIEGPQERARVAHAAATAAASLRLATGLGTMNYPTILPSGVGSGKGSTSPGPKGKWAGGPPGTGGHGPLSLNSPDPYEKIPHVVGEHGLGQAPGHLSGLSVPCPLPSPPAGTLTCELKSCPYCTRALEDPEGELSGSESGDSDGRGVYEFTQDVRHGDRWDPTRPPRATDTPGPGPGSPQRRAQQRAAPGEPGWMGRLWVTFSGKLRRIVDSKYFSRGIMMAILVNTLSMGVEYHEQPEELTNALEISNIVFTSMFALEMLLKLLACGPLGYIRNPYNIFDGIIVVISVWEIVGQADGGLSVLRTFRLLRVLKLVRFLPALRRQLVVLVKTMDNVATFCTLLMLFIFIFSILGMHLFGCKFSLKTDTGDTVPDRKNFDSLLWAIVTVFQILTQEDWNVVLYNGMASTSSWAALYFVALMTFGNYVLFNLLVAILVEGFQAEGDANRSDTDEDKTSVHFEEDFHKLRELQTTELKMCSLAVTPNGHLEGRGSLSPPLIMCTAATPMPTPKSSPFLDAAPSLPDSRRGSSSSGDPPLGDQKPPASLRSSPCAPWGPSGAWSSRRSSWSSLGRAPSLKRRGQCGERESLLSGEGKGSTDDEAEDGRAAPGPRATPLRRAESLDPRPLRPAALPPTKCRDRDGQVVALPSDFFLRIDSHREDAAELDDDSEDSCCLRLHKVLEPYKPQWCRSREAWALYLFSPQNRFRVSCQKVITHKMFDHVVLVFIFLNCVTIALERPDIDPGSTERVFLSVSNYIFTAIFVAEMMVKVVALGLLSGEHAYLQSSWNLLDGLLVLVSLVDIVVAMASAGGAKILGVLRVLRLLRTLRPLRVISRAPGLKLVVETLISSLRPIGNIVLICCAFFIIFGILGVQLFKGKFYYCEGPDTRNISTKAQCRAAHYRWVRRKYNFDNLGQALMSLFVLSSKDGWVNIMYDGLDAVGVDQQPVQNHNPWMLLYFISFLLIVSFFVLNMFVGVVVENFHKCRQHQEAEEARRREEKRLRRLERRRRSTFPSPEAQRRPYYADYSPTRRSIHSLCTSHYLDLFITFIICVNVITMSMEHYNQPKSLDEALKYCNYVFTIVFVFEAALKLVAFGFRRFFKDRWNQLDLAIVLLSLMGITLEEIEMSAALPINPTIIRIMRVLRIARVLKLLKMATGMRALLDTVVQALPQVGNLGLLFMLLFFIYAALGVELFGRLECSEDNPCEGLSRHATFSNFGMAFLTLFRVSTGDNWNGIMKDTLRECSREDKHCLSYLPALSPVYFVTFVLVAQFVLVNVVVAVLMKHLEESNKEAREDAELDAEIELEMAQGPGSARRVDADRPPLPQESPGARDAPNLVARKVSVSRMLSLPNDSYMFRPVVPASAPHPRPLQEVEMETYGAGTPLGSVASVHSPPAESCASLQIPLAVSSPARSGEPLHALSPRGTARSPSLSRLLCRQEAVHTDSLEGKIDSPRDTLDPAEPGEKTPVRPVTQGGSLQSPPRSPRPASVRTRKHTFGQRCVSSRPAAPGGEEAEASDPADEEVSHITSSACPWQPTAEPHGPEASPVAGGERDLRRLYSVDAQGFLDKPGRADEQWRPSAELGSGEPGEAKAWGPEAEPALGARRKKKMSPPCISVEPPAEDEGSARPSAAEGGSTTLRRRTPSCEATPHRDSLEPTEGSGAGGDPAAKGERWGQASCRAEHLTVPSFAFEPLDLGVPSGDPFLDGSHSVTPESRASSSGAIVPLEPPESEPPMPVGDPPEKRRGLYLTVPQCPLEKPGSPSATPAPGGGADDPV

| IC50 [1] | IC50 [2] | Structure (SMILES) | percentage of time in seizure activity compared to both baseline and vehicle [3] | IC50 (hERG K+ channel) | IC50 (hERG K+ channel; human) |
| --- | --- | --- | --- | --- | --- |
| 800 nM | 560 nM | CC(C)(C)NC(=O)CN1CCC(CNC(=O)c2cc(F)cc(F)c2)CC1 [Compound 365, N-((1-(2-(tert-butylamino)-2-oxoethyl)piperidin-4-yl)methyl)-3,5-difluorobenzamide] | significant decrease | – | – |
| < 300 nM | 60 nM | CC(C)(C(=O)NCCN1CCC(CNC(=O)c2cccc(Br)c2)CC1)C(F)(F)F [Compound 493, 3-bromo-N-((1-(2-(3,3,3-trifluoro-2,2-dimethylpropanamido)ethyl)piperidin-4-yl)methyl)benzamide] | – | 2500 nM | – |
| < 300 nM | 210 nM | COc1cc(F)cc(C(=O)NCC2CCN(CC(=O)N(C)C(C)(C)C(F)(F)F)CC2)c1 [Compound 581, 3-fluoro-5-methoxy-N-((1-(2-(methyl(1,1,1-trifluoro-2-methyl-propan-2-yl)amino)-2-oxoethyl)piperidin-4-yl)methyl)benzamide] | – | 11000 nM | – |
| < 300 nM | 120 nM | COc1cc(F)cc(C(=O)NCC2CCN(CC(=O)NC(C)(C)C)CC2)c1 [Compound 366, N-((1-(2-(tert-butylamino)-2-oxoethyl)piperidin-4-yl)methyl)-3-fluoro-5-methoybenzamide] | – | – | ≥ 8300 nM |
| < 300 nM | 70 nM | COc1cc(Cl)cc(C(=O)NCC2CCN(CCNC(=O)C3(C(F)(F)F)CC3)CC2)c1 [Compound 590, 3-chloro-5-methoxy-N-((1-(2-(1-(trifluoromethyl)cyclopropanecarbox-amido)ethyl)piperidin-4-yl)methyl) benzamide] | – | 2200 nM | – |
| 2 nM | 80 nM | O=C(CC1CCN(CC2(NS(=O)(=O)C3CC3)CCCC2)CC1)Nc1cc(C(F)(F)F)cc(C(F)(F)F)c1 [Compound 179, N-(3,5-bis(trifluoromethyl)phenyl)-2-(1-((1-(cyclopropanesulfonamido)cyclopentyl)methyl)piperidin-4-yl) acetamide] | – | 330 nM | – |
| < 300 nM | 80 nM | CC1(NC(=O)CN2CCC(CNC(=O)c3cc(F)cc(Cl)c3)CC2)CCC1 [Compound 482, 3-chloro-5-fluoro-N-((1-(2-(1-methylcyclobutylamino)-2-oxoethyl)piperidin-4-yl)methyl) benzamide] | – | 7900 nM | – |
| 330 nM | 130 nM | O=C(NCC1CCN(CCNC(=O)C2(C(F)(F)F)CC2)CC1)c1cc(F)cc(C(F)(F)F)c1 [Compound 343, 3-fluoro-5-(trifluoromethyl)-N-((1-(2-(1-(trifluoromethyl)cyclopropanecarbox-amido)ethyl)piperidin-4-yl)methyl) benzamide] | – | 6200 nM | – |
| < 300 nM | 30 nM | CC(C)(NC(=O)CN1CCC(CNC(=O)c2cccc(OC(F)(F)F)c2)CC1)C(F)(F)F [Compound 462, N-((1-(2-oxo-2-(1,1,1-trifluoro-2-methylpropan-2-ylamino)ethyl)piperidin-4-yl)methyl)-3-(trifluoromethoxy) benzamide] | – | 4100 nM | – |
| 680 nM | 130 nM | O=C(NCC1CCN(CCNC(=O)C2(C(F)(F)F)CC2)CC1)c1cccc(C(F)(F)F)c1 [Compound 473, 3-(trifluoromethyl)-N-((1-(2-(1-(trifluoromethyl)cyclopropanecarbox-amido)ethyl)piperidin-4-yl)methyl) benzamide] | – | 2200 nM | – |
| < 300 nM | 450 nM | COc1cc(F)cc(C(=O)NCC2CCN(CCNS(=O)(=O)C(C)(C)C)CC2)c1 [Compound 577, N-((1-(2-(1,1-dimethylethylsulfonamido)ethyl)piperidin-4-yl)methyl)-3-fluoro-5-methoxybenzamide] | – | – | ≥ 17000 nM |
| < 300 nM | 80 nM | O=C(CN1CCC(CNC(=O)c2cc(F)cc(Cl)c2)CC1)NC1CCCC1 [Compound 531, 3-chloro-N-((1-(2-(cyclopentylamino)-2-oxoethyl)piperidin-4-yl)methyl)-5-fluorobenzamide] | – | 2400 nM | – |
| 370 nM | 120 nM | Cc1cc(F)cc(C(=O)NCC2CCN(CCNC(=O)C(C)(C)C(F)(F)F)CC2)c1 [Compound 489, 3-fluoro-5-methyl-N-((1-(2-(3,3,3-trifluoro-2,2-dimethylpropanamido)ethyl)piperidin-4-yl)methyl)benzamide] | – | 8800 nM | – |
| < 300 nM | 180 nM | COc1cc(OC)cc(C(=O)NCC2CCN(CCNC(=O)C3(C(F)(F)F)CC3)CC2)c1 [Compound 500, 3,5-dimethoxy-N-((1-(2-(1-(trifluoromethyl)cyclopropanecarbox-amido)ethyl)piperidin-4-yl)methyl) benzamide] | – | 5500 nM | – |
| < 300 nM | 90 nM | COc1cc(F)cc(C(=O)NCC2CCN(CCNC(=O)C3(C(F)(F)F)CCC3)CC2)c1 [Compound 513, 3-fluoro-5-methoxy-N-((1-(2-(1-(trifluoromethyl)cyclobutanecarboxamido)ethyl)piperidin-4-yl)methyl)benzamide] | – | – | ≥ 16600 nM |
| < 300 nM | 120 nM | O=C(NCC1CCN(CC(=O)N2CCC[C@H]2C(F)(F)F)CC1)c1cccc(Cl)c1 [Compound 469, (S)-3-chloro-N-((1-(2-oxo-2-(2-(trifluoromethyl)pyrrolidin-1-yl)ethyl)piperidin-4-yl)methyl)benzamide] | – | 9500 nM | – |
| < 300 nM | 220 nM | CN(C(=O)CN1CCC(CNC(=O)c2cccc(Cl)c2)CC1)C(C)(C)C(F)(F)F [Compound 580, 3-chloro-N-((1-(2-(methyl(1,1,1-trifluoro-2-methylpropan-2-yl)amino)-2-oxoethyl)piperidin-4-yl)methyl)benzamide] | – | – | ≥ 8300 nM |
| < 300 nM | 90 nM | CC(C)(C(=O)NCCN1CCC(CNC(=O)c2cccc(C(F)(F)F)c2)CC1)C(F)(F)F [Compound 492, N-((1-(2-(3,3,3-trifluoro-2,2-dimethylpropanamido)ethyl)piperidin-4-yl)methyl)-3-(trifluoromethyl)benzamide] | – | 4700 nM | – |
| < 300 nM | 160 nM | CC1(C)COCCN1C(=O)CN1CCC(CNC(=O)c2cc(C(F)(F)F)cc(C(F)(F)F)c2)CC1 [Compound 578, N-((1-(2-(3,3-dimethylmorpholino)-2-oxoethyl)piperidin-4-yl)methyl)-3,5-bis(trifluoromethyl)benzamide] | – | 5400 nM | – |
| < 300 nM | 70 nM | CC(C)(C)NC(=O)CN1CCC(CNC(=O)c2cccc(OC(F)(F)F)c2)CC1 [Compound 375, N-((1-(2-(tert-butylamino)-2-oxoethyl)piperidin-4-yl)methyl)-3-(trifluoromethoxy)benzamide] | – | 8800 nM | – |
| < 300 nM | 110 nM | COc1cc(OC)cc(C(=O)NCC2CCN(CC(=O)NC3(C)CCC3)CC2)c1 [Compound 478, 3,5-dimethoxy-N-((1-(2-(1-methylcyclobutylamino)-2-oxoethyl)piperidin-4-yl)methyl) benzamide] | – | – | ≥ 16600 nM |
